In ChEMBL document CHEMBL5715954, “Silencing c-Myc translation as a therapeutic strategy through targeting PI3Kδ and CK1ε in hematological malignancies” (Blood, 2017):

Key:
Set-up in all cases: scale not given: the % may be the effect or the level left
[1] = target: Serine/threonine-protein kinase PAK 4 (Homo sapiens) (UniProt O96013); test: Inhibition of human PAK4 assessed as enzyme activity at 1 uM using RRRLSFAEPG as substrate preincubated for 20 mins followed by [gamma-33P]-ATP addition and measured after 120 mins by radiometric Hot-SpotSM Kinase assay relative to control
Chain of Serine/threonine-protein kinase PAK 4 (Homo sapiens) (O96013 whole entry, looked up): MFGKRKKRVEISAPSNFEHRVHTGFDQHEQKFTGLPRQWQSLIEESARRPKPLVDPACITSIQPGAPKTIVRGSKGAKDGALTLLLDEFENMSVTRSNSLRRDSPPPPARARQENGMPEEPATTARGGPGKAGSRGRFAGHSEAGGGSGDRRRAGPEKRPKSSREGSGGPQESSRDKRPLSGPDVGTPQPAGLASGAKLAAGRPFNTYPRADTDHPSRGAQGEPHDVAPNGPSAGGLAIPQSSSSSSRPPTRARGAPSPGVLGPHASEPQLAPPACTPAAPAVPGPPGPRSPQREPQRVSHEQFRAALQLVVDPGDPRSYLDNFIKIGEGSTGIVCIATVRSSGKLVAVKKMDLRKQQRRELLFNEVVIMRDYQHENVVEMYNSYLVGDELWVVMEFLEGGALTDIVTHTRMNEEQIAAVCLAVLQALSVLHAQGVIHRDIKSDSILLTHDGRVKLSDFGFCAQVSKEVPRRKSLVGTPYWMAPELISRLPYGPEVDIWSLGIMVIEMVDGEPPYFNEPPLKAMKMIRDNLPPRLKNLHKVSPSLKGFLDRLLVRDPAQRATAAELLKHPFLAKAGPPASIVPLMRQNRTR

[2] = target: T1, cAMP-dependent protein kinase catalytic subunit PRKX (Homo sapiens) (UniProt P51817); test: Inhibition of human PRKX assessed as enzyme activity at 1 uM using LRRASLG as substrate preincubated for 20 mins followed by [gamma-33P]-ATP addition and measured after 120 mins by radiometric Hot-SpotSM Kinase assay relative to control
T1 sequence (whole entry): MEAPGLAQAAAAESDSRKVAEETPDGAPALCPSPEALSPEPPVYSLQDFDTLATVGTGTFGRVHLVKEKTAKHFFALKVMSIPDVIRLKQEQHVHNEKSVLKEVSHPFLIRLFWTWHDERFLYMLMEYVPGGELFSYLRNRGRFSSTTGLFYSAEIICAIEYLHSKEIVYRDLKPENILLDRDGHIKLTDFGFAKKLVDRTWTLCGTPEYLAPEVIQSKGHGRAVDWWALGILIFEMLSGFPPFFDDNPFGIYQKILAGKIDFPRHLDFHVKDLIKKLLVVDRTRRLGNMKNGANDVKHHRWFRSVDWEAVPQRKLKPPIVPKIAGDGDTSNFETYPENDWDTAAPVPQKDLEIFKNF

[3] = target: T2, Activin receptor type-1 (Homo sapiens) (UniProt Q04771); test: Inhibition of human ALK2 assessed as enzyme activity at 1 uM using casein as substrate preincubated for 20 mins followed by [gamma-33P]-ATP addition and measured after 120 mins by radiometric Hot-SpotSM Kinase assay relative to control
T2 sequence (whole entry): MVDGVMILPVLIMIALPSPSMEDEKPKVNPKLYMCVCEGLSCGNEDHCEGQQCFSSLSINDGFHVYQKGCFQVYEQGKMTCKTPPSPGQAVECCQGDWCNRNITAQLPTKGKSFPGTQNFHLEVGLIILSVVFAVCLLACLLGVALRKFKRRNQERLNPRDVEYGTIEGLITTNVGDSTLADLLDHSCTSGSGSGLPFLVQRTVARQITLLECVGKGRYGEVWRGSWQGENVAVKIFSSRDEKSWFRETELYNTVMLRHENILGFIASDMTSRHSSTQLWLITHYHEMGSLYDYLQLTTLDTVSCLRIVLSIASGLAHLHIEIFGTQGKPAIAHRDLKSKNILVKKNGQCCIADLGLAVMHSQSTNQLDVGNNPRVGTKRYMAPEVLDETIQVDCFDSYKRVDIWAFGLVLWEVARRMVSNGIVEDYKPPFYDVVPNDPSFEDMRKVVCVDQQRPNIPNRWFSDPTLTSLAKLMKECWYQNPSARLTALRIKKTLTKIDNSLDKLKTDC

[4] = target: T3, Mitogen-activated protein kinase kinase kinase 3 (Homo sapiens) (UniProt Q99759); test: Inhibition of human MEKK3 assessed as enzyme activity at 1 uM using myelin basic protein as substrate preincubated for 20 mins followed by [gamma-33P]-ATP addition and measured after 120 mins by radiometric Hot-SpotSM Kinase assay relative to control
T3 sequence (whole entry): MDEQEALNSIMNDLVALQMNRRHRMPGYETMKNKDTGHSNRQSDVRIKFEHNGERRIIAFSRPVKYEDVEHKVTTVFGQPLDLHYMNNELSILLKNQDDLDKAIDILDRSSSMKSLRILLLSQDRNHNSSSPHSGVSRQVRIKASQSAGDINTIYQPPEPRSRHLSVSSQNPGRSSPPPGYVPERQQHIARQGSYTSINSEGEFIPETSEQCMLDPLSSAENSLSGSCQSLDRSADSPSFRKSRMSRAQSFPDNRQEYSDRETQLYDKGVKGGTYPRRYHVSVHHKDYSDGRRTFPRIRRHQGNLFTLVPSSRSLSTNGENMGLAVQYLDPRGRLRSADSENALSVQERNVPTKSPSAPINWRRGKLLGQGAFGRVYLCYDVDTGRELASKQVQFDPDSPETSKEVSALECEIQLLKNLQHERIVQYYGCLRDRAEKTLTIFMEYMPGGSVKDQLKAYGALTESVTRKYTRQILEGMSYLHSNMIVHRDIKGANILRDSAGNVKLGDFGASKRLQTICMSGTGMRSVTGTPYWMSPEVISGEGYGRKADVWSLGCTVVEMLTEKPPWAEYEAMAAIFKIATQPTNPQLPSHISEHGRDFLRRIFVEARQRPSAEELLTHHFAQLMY

[5] = target: Proto-oncogene tyrosine-protein kinase receptor Ret (Homo sapiens) (UniProt P07949); test: Inhibition of human RET assessed as enzyme activity at 1 uM using RRRRRRRRRRRVYSTDYYRLFNPS as substrate preincubated for 20 mins followed by [gamma-33P]-ATP addition and measured after 120 mins by radiometric Hot-SpotSM Kinase assay relative to control
Chain of Proto-oncogene tyrosine-protein kinase receptor Ret (Homo sapiens) (P07949 whole entry): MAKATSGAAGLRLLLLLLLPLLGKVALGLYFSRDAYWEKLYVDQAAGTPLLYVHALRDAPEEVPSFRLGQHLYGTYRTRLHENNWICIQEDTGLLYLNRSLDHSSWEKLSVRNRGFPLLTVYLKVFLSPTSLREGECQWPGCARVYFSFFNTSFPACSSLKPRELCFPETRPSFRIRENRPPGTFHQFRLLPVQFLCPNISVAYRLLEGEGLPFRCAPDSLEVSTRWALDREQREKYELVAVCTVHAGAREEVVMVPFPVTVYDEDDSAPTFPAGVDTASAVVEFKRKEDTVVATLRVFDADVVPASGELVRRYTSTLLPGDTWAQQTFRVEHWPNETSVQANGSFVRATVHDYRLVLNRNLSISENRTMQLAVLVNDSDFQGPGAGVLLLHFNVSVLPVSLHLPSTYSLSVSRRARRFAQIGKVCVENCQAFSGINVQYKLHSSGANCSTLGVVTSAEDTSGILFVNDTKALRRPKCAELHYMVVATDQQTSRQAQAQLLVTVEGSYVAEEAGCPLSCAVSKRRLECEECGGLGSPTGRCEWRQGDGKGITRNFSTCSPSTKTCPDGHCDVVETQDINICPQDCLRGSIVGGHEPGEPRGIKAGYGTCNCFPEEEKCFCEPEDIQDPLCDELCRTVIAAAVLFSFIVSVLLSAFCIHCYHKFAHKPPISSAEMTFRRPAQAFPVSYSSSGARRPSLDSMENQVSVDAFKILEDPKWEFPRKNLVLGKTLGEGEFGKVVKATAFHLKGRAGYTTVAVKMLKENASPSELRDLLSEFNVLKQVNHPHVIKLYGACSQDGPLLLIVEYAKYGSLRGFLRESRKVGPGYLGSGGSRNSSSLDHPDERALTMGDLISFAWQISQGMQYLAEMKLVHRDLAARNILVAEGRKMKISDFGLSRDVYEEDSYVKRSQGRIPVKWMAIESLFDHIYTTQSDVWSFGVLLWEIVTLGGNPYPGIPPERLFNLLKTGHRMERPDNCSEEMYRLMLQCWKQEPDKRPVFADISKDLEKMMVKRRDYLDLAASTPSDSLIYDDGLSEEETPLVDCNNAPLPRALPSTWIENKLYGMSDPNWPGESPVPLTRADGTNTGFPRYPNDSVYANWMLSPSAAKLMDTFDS

[6] = target: Tyrosine-protein kinase Fgr (Homo sapiens) (UniProt P09769); test: Inhibition of human FGR assessed as enzyme activity at 1 uM using poly[Glu:Tyr] (4:1) as substrate preincubated for 20 mins followed by [gamma-33P]-ATP addition and measured after 120 mins by radiometric Hot-SpotSM Kinase assay relative to control
Chain of Tyrosine-protein kinase Fgr (Homo sapiens) (P09769 2-529 limits assumed): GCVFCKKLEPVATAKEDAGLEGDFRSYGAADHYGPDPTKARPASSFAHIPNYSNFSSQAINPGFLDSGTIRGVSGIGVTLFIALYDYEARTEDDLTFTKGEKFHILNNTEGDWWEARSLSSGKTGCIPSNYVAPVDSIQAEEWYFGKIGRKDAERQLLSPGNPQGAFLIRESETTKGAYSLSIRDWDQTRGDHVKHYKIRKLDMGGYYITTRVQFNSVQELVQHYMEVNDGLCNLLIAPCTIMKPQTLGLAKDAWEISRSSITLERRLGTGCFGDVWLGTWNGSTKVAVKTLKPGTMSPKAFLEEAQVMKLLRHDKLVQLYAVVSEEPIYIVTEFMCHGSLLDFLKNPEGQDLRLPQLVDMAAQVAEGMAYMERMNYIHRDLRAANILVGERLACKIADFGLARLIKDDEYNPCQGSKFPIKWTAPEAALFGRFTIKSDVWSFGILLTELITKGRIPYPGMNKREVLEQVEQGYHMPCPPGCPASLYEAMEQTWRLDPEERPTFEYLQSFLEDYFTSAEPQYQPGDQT

[7] = target: Serine/threonine-protein kinase 33 (Homo sapiens) (UniProt Q9BYT3); test: Inhibition of human STK33 assessed as enzyme activity at 1 uM using myelin basic protein as substrate preincubated for 20 mins followed by [gamma-33P]-ATP addition and measured after 120 mins by radiometric Hot-SpotSM Kinase assay relative to control
Chain of Serine/threonine-protein kinase 33 (Homo sapiens) (Q9BYT3 whole entry, looked up): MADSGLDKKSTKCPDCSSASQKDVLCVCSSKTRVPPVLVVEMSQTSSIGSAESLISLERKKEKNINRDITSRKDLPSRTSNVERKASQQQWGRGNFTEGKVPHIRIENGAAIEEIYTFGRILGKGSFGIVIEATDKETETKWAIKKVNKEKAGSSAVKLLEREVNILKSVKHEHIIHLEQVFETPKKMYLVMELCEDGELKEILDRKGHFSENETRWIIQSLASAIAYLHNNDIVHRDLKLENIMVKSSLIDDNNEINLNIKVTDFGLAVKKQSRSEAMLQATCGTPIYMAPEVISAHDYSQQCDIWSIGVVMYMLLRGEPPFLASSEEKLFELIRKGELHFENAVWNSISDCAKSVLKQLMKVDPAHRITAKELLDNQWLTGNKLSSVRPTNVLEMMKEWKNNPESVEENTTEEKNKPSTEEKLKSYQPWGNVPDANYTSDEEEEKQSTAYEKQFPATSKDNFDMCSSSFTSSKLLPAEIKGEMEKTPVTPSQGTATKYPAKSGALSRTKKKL

[8] = target: Mast/stem cell growth factor receptor Kit (Homo sapiens) (UniProt P10721); test: Inhibition of human c-Kit assessed as enzyme activity at 1 uM using poly[Glu:Tyr] (4:1) as substrate preincubated for 20 mins followed by [gamma-33P]-ATP addition and measured after 120 mins by radiometric Hot-SpotSM Kinase assay relative to control
Chain of Mast/stem cell growth factor receptor Kit (Homo sapiens) (P10721 whole entry): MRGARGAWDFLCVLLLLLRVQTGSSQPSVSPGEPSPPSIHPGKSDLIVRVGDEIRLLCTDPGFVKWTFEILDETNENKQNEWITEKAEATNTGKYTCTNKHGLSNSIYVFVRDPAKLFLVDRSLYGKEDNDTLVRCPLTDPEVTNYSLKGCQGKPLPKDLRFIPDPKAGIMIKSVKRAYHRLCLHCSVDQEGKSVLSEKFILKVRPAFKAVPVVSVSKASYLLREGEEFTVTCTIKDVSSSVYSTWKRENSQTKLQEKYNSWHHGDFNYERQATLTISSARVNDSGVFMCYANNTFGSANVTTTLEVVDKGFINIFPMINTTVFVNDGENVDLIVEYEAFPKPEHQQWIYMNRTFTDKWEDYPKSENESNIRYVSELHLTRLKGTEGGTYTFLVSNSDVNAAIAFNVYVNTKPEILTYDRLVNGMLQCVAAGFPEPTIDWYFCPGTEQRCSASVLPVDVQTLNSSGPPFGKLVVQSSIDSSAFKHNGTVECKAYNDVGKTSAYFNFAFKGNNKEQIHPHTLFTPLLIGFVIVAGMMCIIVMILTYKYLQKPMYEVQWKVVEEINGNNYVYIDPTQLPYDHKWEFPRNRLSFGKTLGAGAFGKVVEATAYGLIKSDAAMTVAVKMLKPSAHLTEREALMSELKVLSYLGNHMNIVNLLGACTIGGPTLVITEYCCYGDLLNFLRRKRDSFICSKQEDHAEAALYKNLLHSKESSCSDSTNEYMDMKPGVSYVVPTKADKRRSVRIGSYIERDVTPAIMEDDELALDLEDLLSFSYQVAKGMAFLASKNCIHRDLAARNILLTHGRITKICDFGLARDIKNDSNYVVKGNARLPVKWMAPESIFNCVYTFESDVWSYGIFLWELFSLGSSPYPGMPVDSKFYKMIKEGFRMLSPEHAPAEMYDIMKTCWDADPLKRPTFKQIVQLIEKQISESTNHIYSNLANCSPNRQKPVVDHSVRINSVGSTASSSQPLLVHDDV

[9] = target: Serine/threonine-protein kinase N2 (Homo sapiens) (UniProt Q16513); test: Inhibition of human PKN2 assessed as enzyme activity at 1 uM using KKLNRTLSVA as substrate preincubated for 20 mins followed by [gamma-33P]-ATP addition and measured after 120 mins by radiometric Hot-SpotSM Kinase assay relative to control
Chain of Serine/threonine-protein kinase N2 (Homo sapiens) (Q16513 whole entry, looked up): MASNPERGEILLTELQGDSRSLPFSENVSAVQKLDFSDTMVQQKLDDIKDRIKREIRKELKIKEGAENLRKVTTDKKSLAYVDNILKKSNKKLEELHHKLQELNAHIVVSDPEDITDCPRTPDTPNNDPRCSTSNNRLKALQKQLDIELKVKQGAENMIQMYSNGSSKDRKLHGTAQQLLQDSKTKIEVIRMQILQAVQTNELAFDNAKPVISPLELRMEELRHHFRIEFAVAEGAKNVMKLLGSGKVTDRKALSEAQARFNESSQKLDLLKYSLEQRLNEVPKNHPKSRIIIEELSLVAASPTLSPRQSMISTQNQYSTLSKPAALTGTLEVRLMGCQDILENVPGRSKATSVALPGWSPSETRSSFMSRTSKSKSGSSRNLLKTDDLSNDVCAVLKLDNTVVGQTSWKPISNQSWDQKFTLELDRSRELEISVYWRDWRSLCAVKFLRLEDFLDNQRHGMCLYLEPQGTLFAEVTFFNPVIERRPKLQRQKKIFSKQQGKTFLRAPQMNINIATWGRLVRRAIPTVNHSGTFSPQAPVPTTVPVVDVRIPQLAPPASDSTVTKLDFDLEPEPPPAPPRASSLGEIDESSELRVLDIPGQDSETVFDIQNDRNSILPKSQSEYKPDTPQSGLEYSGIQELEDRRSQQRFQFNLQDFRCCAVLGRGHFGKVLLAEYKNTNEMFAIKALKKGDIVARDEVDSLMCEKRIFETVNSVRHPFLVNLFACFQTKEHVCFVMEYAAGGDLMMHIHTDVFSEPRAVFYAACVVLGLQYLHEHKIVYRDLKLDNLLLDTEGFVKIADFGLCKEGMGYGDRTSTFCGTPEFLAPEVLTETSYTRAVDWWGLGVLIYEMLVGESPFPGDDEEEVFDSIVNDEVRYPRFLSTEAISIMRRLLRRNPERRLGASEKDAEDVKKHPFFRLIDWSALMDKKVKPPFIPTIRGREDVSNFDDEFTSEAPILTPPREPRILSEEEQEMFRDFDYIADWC

[10] = target: MAP kinase-interacting serine/threonine-protein kinase 1 (Homo sapiens) (UniProt Q9BUB5); test: Inhibition of human MNK1 assessed as enzyme activity at 1 uM using myelin basic protein as substrate preincubated for 20 mins followed by [gamma-33P]-ATP addition and measured after 120 mins by radiometric Hot-SpotSM Kinase assay relative to control

Row | Structure (SMILES) | Activity [1] [%] | Activity [2] [%] | Activity [3] [%] | Activity [4] [%] | Activity [5] [%] | Activity [6] [%] | Activity [7] [%] | Activity [8] [%] | Activity [9] [%] | Activity [10] [%]
1 | C[C@H](Nc1ncnc2nc[nH]c12)c1cc2cccc(Cl)c2c(=O)n1-c1ccccc1 | 107 | 98.6 | 93.6 | 91.8 | 97.7 | 103 | 101 | 103 | 84.5 | 93.5
2 | CC[C@H](Nc1ncnc2[nH]cnc12)c1nc2cccc(F)c2c(=O)n1-c1ccccc1 | 95.9 | 97.6 | 94 | 102 | 98.6 | 98.8 | 101 | 99.4 | 84.7 | 96.3
3 | CC(C)Oc1ccc(-c2nn([C@@H](C)c3oc4ccc(F)cc4c(=O)c3-c3cccc(F)c3)c3ncnc(N)c23)cc1F [UMBRALISIB] | 99.1 | 90.8 | 95.5 | 102 | 99.9 | 99.6 | 106 | 97.4 | 84.4 | 92
